From patent US7125849B2, “Peptide-based angiogenesis inhibitors and methods of use thereof” (The Scripps Research Institute, priority 2003, dated 2006) come the findings set out here.

Data set [1] relates to chorioallantoic membrane (CAM) of chick embryos. Put plainly: Chick CAM in vivo angiogenesis assay (bFGF-induced). The conditions noted are these: bFGF filters, examined 3 days later, compared to untreated filters, FIG. 6. As for the experimental part:
Chick Cam Assays. In vivo angiogenesis assays were performed essentially as previously described by Brooks, et al., Cell, 1994, 79:1157–1164, the relevant disclosures of which are incorporated herein by reference. Filter discs saturated with 1.0 ug/ml bFGF were placed on the chorioallantoic membranes (CAMs) of 10-day-old chicken embryos, immediately followed by daily topical addition of either a PRO inhibitory peptide (20 μgs) or a control peptide ([…]) in 20 μl of fibroblast growth medium (FGM). After 72 hours, the filter discs and associated CAM tissue were harvested and quantified. Angiogenesis was assessed as the number of visible blood vessel branch points within the defined area of the filter discs. At least 20 CAMs were used for each treatment.
New blood vessels invade the filter dishes within 2–5 days, and angiogenesis can be readily detected. Filters without any additions, with control or with the PRO compound of Example 1 were implanted and examined 3 days later.

The subject of a further data set is HMEC-1 cells. The experiment in a line: Endothelial cell migration by time lapse imaging. As for the experimental part:
Microscopy. To assay migration, HMEC-1 cells were treated with various concentrations of either PRO polypeptide or mutant peptide prior to plating. Cells were plated on coverslips coated with about 2 μg/ml of fibronectin (FN). Dishes containing coverslips were prepared as described by Kiosses et al., and maintained at a temperature of about 37° C., under an atmosphere containing about 5% carbon dioxide as described by Schwartz, J. Cell Biol., 1993, 120:1003–1010. The cells were viewed with a Nikon DiaPhot Microscope equipped with a SenSys cooled CCD video camera linked to a Silicon Graphics workstation running the Inovision ISEE software program. At the end of the experiment, images of each cell were outlined and the centroid (cell center) calculated. Displacement of the centroid was then used to determine movement of the cell over time. Statistical analysis was performed using Microsoft EXCEL statistics software. Approximately 50 cells were filmed and tracked per experiment, with at least 3 independent experiments for both the PRO and the mutant peptide. Results were expressed as means±standard error of the mean. The Students t-test was used to determine whether the observed differences were statistically significant (p=0.05).

The next data set relates to endothelial cells. The experiment in a line: Contractility on flexible silicone rubber substrates (wrinkle assay). It is filed as cell-based. The conditions noted are these: about 10 μM, FIG. 4. The text has this:
Contractility. To visualize cell contractility, flexible rubber substrates were generated as described by Bussolino et al., J. Biol. Chem., 1989, 264:18284–18287. Briefly, silicone rubber (polydimethylsiloxane), having a viscosity of about 10000 centistokes (Dow Corning Co.) was applied to the coverslip at the bottom of 35 mm tissue culture dishes and coated with a thin layer of gold-palladium using a Hummer VI sputter coater, which polymerized a thin layer of silicon rubber. The surface was additionally coated with about 2 μg/ml of fibronectin (FN). Treated and un-treated endothelial cells were plated on the rubber substrate and allowed to adhere. Cells that had wrinkled the substrate beneath were visualized for about 4 hours and then scored by time-lapse phase contrast microscopy. Following this period, the cells were treated with Cytochalasin D (about 1 μg/ml) (Molecular Probes) to release all wrinkles that were due to actin-dependent cell tension.
To examine effects on contractility, cells were plated on elastic substrata, as described above, that can be pulled into wrinkles by cell-generated forces.

The target of another data set is T1, Nck (Homo sapiens, UniProt P16333).
T1 construct: endogenous in cells; host or cells: human endothelial cells (cell type for this assay not further specified)
Put plainly: Affinity chromatography of endothelial cell extracts on peptide-agarose, western blot with anti-Nck. It counts as binding. Particulars: detergent extracts of human endothelial cells. As for the experimental part: Affinity Chromatography. PRO or control peptides containing an N-terminal cysteine were dissolved in about 1 ml of coupling buffer (50 mM tris pH 8.0, 5 mM EDTA) and about 0.5 ml at about 3 mg/ml peptide added to about 2 ml of activated thiol-Sepharose (Pharmacia). Samples were incubated at a temperature of about 4° C. overnight with 1% β-mercaptoethanol added to block unreacted sites. Beads were rinsed and stored at a temperature of about 4° C. Endothelial cell cultures in 15 cm dishes were extracted in about 1.0 ml of cold (about 4° C.), lysis buffer (20 mM pH 7.4 sodium phosphate, 100 mM NaCl, 1% Triton X-100, 10 mM NaF, 2 mM EDTA, 1 mM sodium orthovanadate, 1 mM PMSF, 10 μg/ml each of leupeptin and aprotinin). The extracts were centrifuged for about 10 minutes at top speed in a microfuge and the supernatants were then removed. A 0.5 ml sample of each extract was incubated with about 10 μl of packed beads for about 1 hour, with rotation at a temperature of about 4° C. The beads were rinsed with lysis buffer (about 4×0.5 ml) and dissolved in SDS sample buffer (about 0.04 ml). Samples were analyzed by SDS PAGE on 10% gels and immunoblotting with anti-NCK (Santa Cruz) and HRP-protein A as secondary, and then were developed and detected using enhanced chemiluminescence (ECL kit, Amersham). […]
(In general: Immunoblotting shows a protein as a band on a membrane.)

In data set [2] the test system is Human umbilical vein endothelial cells (HUVECs). The experiment in a line: In vitro tube formation assay in 3-dimensional matrix. It counts as cell-based. Particulars: about 48 hours. An excerpt:
Formation of Three-dimensional Collagen Gels. Collagen gels were formed by mixing ice-cold gelation solution (10× M199, H2O, 0.53 mol/L NaHCO3, 200 mmol/L L-glutamine, type I collagen, 0.1 mol/L NaOH; 100:27.7:50:10:750:62.5 by volume) with cells in 1×-basal medium at a concentration of about 3×10^6 cells/ml at a ratio of about 4 volumes of gelation solution to about 1 volume of cells by the method of Yang et al. Am. J. Pathol., 1999, 155:[…] (hereinafter “Yang et al.”). The gels were allowed to form by incubation in a CO2-free incubator at a temperature of about 37° C. for about 30–60 minutes. […]
Quantification of Tube Formation. […] The total length of each tube or the long axis of single cells or groups of adjacent cells was measured, and the raw data was imported into a Microsoft Excel spread sheet. The mean tube length was determined for each well, followed by determination of the mean data and SEM for each experimental group.
As an initial test of the PRO effect on endothelial cell behavior in 3-dimensional matrices, in vitro tube formation assays in matrigel were carried out. […] Tube formation was quantitated by determining the length of endothelial cell tubes.

No end group written: not given here.

“SEQ ID NO: 5: control peptide in which the first two prolines of SEQ ID NO: 4 were replaced by the amino acids A and G (YGRKKRRQRRRGKAGAPPMRNTSTM; fusion protein fragment)”: the “Angiogenesis in CAM (vascular branch points)” value in data set [1] is recorded as “essentially no effect”. In addition, in the data set on HMEC-1 cells (about 10 μM peptide, time lapse imaging, FIG. 3A), the “Endothelial cell migration rate” value is “no significant effect on migration”. Also, the “Cell contractility (wrinkles of elastic substratum)” value in the data set on endothelial cells was “had no effect”. For the same substance, in the data set with Nck, the “Binding of Nck from endothelial cell lysates” value was “no detectable Nck was bound”.

Take “YGRKKRRQRRRGKPPAPPMRNTSTM [SEQ ID NO: 4]”: in data set [2], the Cell number result was “nor was cell number greatly altered” and the “Morphology of individual cells” value was “not noticeably perturbed”. Moreover, in the data set with HMEC-1 cells (FIG. 3B), the “Migration rates over the time course (argues against toxicity)” value is listed as “essentially constant”.
